This passage reports IC50 results from ChEMBL document CHEMBL1123940, “Carbamate ester derivatives as potential prodrugs of the presynaptic dopamine autoreceptor agonist (-)-3-(3-hydroxyphenyl)-N-propylpiperidine” (J Med Chem, 1987).

The test has as its target Acetylcholinesterase (Homo sapiens, UniProt P22303). In words: Inhibitory activity against acetylcholinesterase in human blood. In kind it is tissue-based.

Acetylcholinesterase, sequence (P22303 whole entry): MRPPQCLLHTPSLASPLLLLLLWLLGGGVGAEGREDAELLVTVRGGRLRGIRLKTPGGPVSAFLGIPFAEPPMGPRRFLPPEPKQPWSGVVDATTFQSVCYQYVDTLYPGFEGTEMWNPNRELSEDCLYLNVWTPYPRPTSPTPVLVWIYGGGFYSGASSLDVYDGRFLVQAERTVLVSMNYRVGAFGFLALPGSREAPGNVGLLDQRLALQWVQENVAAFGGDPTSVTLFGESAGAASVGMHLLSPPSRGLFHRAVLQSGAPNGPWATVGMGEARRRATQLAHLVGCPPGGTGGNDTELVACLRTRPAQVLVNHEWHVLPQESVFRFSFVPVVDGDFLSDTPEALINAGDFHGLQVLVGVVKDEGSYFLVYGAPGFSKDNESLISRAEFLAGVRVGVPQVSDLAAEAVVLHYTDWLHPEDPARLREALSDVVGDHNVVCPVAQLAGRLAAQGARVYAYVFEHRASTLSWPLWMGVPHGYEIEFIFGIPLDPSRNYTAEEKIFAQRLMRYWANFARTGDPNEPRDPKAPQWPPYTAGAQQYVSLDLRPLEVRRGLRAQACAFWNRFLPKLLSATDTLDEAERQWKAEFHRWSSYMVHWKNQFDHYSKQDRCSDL

As for `CCCN1CCCC(c2cccc(OC(=O)NC(C)C)c2)C1` (stereo unspecified), the IC50 was determined as 10 µM.
